How the values were obtained:
Experiment in all cases: relative viability (nuclei count vs DMSO), 5 days (fraction); higher = more cells survive
Vorinostat = compound: O=C(CCCCCCC(=O)Nc1ccccc1)NO [Vorinostat]
Procedure, shortened: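 Cells of lung cancer lines were placed in 1536-well plates and kept overnight at 37 °C. Pinning then delivered five library-drug doses (not always all listed), spaced by √10, onto plates anchored with vehicle, and the cells were left 5 days without changing medium. One step fixed, permeabilised and stained them with Hoechst, and MetaXpress counted nuclei in 4× images. Viability, as a median over plates, is treated-well nuclei divided by vehicle-well nuclei, with acceptance only at control CV below 25% and at least one doubling.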

Vorinostat + Tozasertib = compound: O=C(CCCCCCC(=O)Nc1ccccc1)NO [Vorinostat] + Cc1cc(Nc2cc(N3CCN(C)CC3)nc(Sc3ccc(NC(=O)C4CC4)cc3)n2)n[nH]1 [Tozasertib] (partner 0.1 µM)
Procedure, shortened: (§1)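 Lung cancer cell lines, seeded in 1536-well plates, were treated the following day by pin tool with a single drug or with five library-drug doses (not always all listed) in √10 steps on top of a fixed anchor-drug dose. Cells were fixed and nuclei stained in one step after 5 days, and nuclei were counted. Relative viability is the nuclei count for treated wells divided by that for vehicle wells, reported as medians of duplicate plates.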

Vorinostat + Linsitinib = compound: O=C(CCCCCCC(=O)Nc1ccccc1)NO [Vorinostat] + C[C@]1(O)C[C@@H](c2nc(-c3ccc4ccc(-c5ccccc5)nc4c3)c3c(N)nccn32)C1 [Linsitinib] (partner 1 µM)
Procedure, shortened: as §1

Vorinostat + OSI-027 = compound: O=C(CCCCCCC(=O)Nc1ccccc1)NO [Vorinostat] + COc1cccc2cc(-c3nc([C@H]4CC[C@H](C(=O)O)CC4)n4ncnc(N)c34)[nH]c12 [OSI-027] (partner 0.5 µM)
Procedure, shortened: as §1

Cell Line	relative viability (Vorinostat; 0.253 µM)	relative viability (Vorinostat; 0.8 µM)	relative viability (Vorinostat; 1 µM, anchor plate)	relative viability (Vorinostat; 2.53 µM)	relative viability (Vorinostat; 8 µM)	relative viability (Vorinostat + Tozasertib; first compound 0.253 µM)	relative viability (Vorinostat + Tozasertib; first compound 0.8 µM)	relative viability (Vorinostat + Tozasertib; first compound 2.53 µM)	relative viability (Vorinostat + Tozasertib; first compound 8 µM)	relative viability (Vorinostat + Linsitinib; first compound 0.253 µM)	relative viability (Vorinostat + Linsitinib; first compound 0.8 µM)	relative viability (Vorinostat + Linsitinib; first compound 2.53 µM)	relative viability (Vorinostat + Linsitinib; first compound 8 µM)	relative viability (Vorinostat + OSI-027; first compound 0.253 µM)	relative viability (Vorinostat + OSI-027; first compound 0.8 µM)	relative viability (Vorinostat + OSI-027; first compound 2.53 µM)	relative viability (Vorinostat + OSI-027; first compound 8 µM)
NCI-H2009	1.14	0.878	0.711	0.482	0.153	0.776	0.574	0.295	0.133	1.27	1.07	0.707	0.177	0.793	0.795	0.254	0.0901
NCI-H2023	1.22	0.771	0.709	0.209	0.0744	0.364	0.215	0.11	0.0623	0.841	0.682	0.296	0.0892	0.473	0.359	0.134	0.0617
NCI-H2085	1.05	0.939	0.815	0.714	0.369	0.771	0.651	0.376	0.311	0.818	0.804	0.621	0.243	0.722	0.463	0.415	0.205
NCI-H2087	1.03	0.634	0.737	0.246	0.0956	0.262	0.14	0.0617	0.0825	0.974	1.03	0.474	0.159	0.746	0.417	0.106	0.063
NCI-H2126	1.03	0.875	0.769	0.655	0.257	0.731	0.444	0.212	0.171	0.581	0.68	0.456	0.224	0.761	0.572	0.506	0.209
NCI-H2228	0.93	0.802	0.654	0.476	0.146	0.199	0.103	0.0837	0.0871	0.805	0.542	0.425	0.0918	0.767	0.452	0.203	0.0986
NCI-H2347	1.11	0.962	0.61	0.777	0.262	0.66	0.432	0.244	0.203	0.992	0.982	0.766	0.306	0.363	0.382	0.149	0.164
NCI-H2405	1.05	1.17	1.01	0.57	0.144	0.718	0.692	0.339	0.117	1.13	1.09	0.245	0.0821	0.695	0.778	0.463	0.103
